One block for each compound: values may come before it.
Key:
[1] = system: β-catenin/TCF transcription; assay: TopFlash reporter gene assay in SW480 cells; format: cell-based; conditions: Homo sapiens; SW480 cells transfected with β-catenin/TCF luciferase construct; 24 hours treatment; dual luciferase assay; read-out: IC50, inhibition of β-catenin/TCF reporter gene construct
Procedure: FIG. 2. Compound A (Serial No. 111 in Table 2) inhibits β-catenin/TCF transcription. […] SW480 cells (10^5) were transfected with β-catenin/TCF luciferase construct. Cells were treated with Compound A (1-50 μM). 24 hours after the treatment lysates were prepared and subjected to dual luciferase assay.
FIG. 3. Compound B (Serial No. 10 in Table 2) inhibits β-catenin/TCF transcription. […] SW480 cells ([…]) were transfected with β-catenin/TCF luciferase construct. Cells were treated with Compound B (1-50 μM). 24 hours after treatment lysates were prepared and subjected to dual luciferase assay.
SW480 cells were transfected using Superfect™ transfection reagent (Qiagen, 301307). Cells were trypsinized briefly 1 day before transfection and plated on 6 well plate (5×10^5 cells/well) so that they were 50-80% confluent on the day of transfection.
Four microgram (TOPFlash) and one microgram (pRL-null) of DNAs were diluted in […] of serum-free medium, and 30 μl of Superfect™ transfection reagent was added. The DNA-Superfect mixture was incubated at room temperature for 15 min, and then, 1 ml of 10% FBS DMEM was added to this complex for an additional 3 hours of incubation. While complexes were forming, cells were washed with PBS twice without antibiotics.
The DNA-Superfect™ transfection reagent complexes were applied to the cells before incubating at 37° C. at 5% CO2 for 3 hours. […]

[2] = system: Mouse embryonic stem (ES) cells, TC1; assay: Cardiomyogenesis modulating activity assay (alpha-MHC promoter EGFP, embryoid bodies, FACS/fluorescence microscopy); format: cell-based; conditions: for Cardiomyogenesis: fold change of EGFP expression level compared with DMSO control: embryoid bodies treated for 5 days
How it was run: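 Mouse TC1 ES cells carrying an alpha-MHC promoter-EGFP reporter were formed into embryoid bodies (~600 cells, 2 days hanging drop, 2 days suspension), plated, then exposed to compounds (final 0.05% DMSO) for 5 days. Cardiomyogenesis assessed by EGFP via FACS after trypsin dissociation, fluorescence microscopy, and daily counts of beating EBs.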

[3] = system: human bone marrow derived-mesenchymal stem cells (hBMMSC); assay: Osteogenesis modulating activity assay by test compound alone (ALP activity); format: cell-based; conditions: for fold induction at 20 µM: Homo sapiens, 168 h, 20 μM test compound alone, six to seven days, read-out: Osteogenesis: fold change of ALP activity compared with DMSO control
How it was run: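 hBMMSC from normal subjects were treated with compound at 20 μM final (0.01% DMSO) at 37° C, 5% CO2, with medium and compound renewed every two days. Alkaline phosphatase activity in cell lysates was measured colorimetrically after six to seven days.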

[4] = system: human bone marrow derived-mesenchymal stem cells (hBMMSC); assay: Osteogenesis modulating activity with osteogenic induction cocktails (ALP activity, mineralization); format: cell-based
Procedure: Cell culture: Human bone marrow derived-mesenchymal stem cells (hBMMSC) were isolated from normal subjects.
Osteogenesis modulating activity of test compounds with induction media: hBMMSC were culture with culture media containing osteogenic induction cocktails (OIC, 0.1 μM dexamethasone, 50 μM ascorbate-2-phosphate, 10 mM b-glycerophosphate). Four to five days after incubation, Alkaline phosphatase (ALP) activity of cell lysates were measured by colorimetry. For the determination of mineralization within the cells, Von Kossa staining or Alizarin Red S assay was performed 10-14 days after incubation.

[5] = system: hBMMSC; assay: Cell proliferation assay (CellTiter 96) in hBMMSC; format: cell-based, human; conditions: treated alone
Procedure: Cell proliferation assay: To investigate the cytotoxicity of the test compounds for hBMMSC, hBMMSC were exposed to the test compounds for 6-7 days at the same condition above (method b and c). Cell proliferation was assessed using CellTiter 96 Aqueous One Solution (Promega, #G3581). Absorbance at 490 nm of each well was determined with a microplate reader (Molecular Device) and % growth inhibition was calculated compared with control.

[6] = system: MyoD and Myf5 protein expression in C2C12 cells; assay: Expression of MyoD and Myf5 (Western immunoblot) in C2C12 cells; format: cell-based, Murine; conditions: for expression of Myf5 compared with DMSO control, dose dependence: 5 and 10 μM; for Myf-5 expression on co-treatment with Wnt1 conditioned medium: co-treated with Wnt1
Procedure: (§1) a. Cell culture: Murine C2C12 myoblastic cell line (satellite cells from thigh muscle) purchased from American Tissue Type Collection (ATCC) was maintained in exponential phase of growth using 10% FBS/DMEM with Glutamax designed as GM (growth medium) supplied with antibiotic solution (Penicillin and Streptomycin) in a controlled humidified air atmosphere supplied with 5% CO2, at 37° C. in a multiwell or tissue culture Petri dishes (Corning-Costar Inc U.S.A.).
(§2) b. Induction of differentiation and test compound treatment: Every other day the cells were washed twice with phosphate buffered saline (PBS) and medium was changed until they reached 100% confluence. Confluent cells (myoblasts of the same cell density fully covering surface dish) were then guided to post mitotic status, and differentiation and fusion were initiated by replacing GM with 2% (v/v) horse serum HS/DMEM designed as DM (differentiating medium). In the above mentioned conditions C2C12 myoblasts easily and fully differentiate into myotubes, therefore we could follow up modifications of differentiation process during 5 subsequent days. During the study freshly prepared media without or with the experimental factors were changed every 24 hours. Test compounds were dissolved in DMSO and diluted with culture medium. Test compounds (if not specified, 10 μM was used, final DMSO 0.1% v/v) or DMSO (0.1% v/v) were added to the medium.
c. Expression of MyoD and Myf5: Cells were lysed and protein expression levels were analyzed by Western-immunoblot analysis, as described in the literature (Verma et al., British J Pharmacol, 2004, 143, 106-13). Equal amount of protein samples were resolved by sodium dodecyl sulphate poly-acrylamide gel electrophoresis (SDS-PAGE) and transferred to nitrocellulose membranes. The membranes were blocked with 5% bovine serum albumin (BSA) and incubated with the indicated primary antibodies for 12˜h: polyclonal C20 antion MyoD (from Santa-Cruz, Biotechnology, Santa Cruz, Calif.) diluted 1/400, polyclonal anti-Myf-5 directed against the COOH-terminal portion of the protein. After several washes in PBS, membranes were incubated with chemiluminescence reagents.

[7] = system: ALP mRNA in hBMMSC; assay: RT-PCR of alkaline phosphatase (ALP) mRNA in hBMMSC; format: cell-based, human; conditions: compound treatment for 4 days
Procedure: RT-PCR. To analyze the mRNA levels for Alkaline phosphatase (ALP), total RNA was isolated using Trizol (Invitrogen-GIBCO-BRL, Baltimore, Md.) from hBMMSC with or without compound treatment for 4 days. 2 μg RNA was reverse transcribed in a total volume of 20 μl with random hexamer (50 ng), and using the Superscript II reverse transcription system (Invitrogen-GIBCO-BRL), according to manufacturer's guidelines. PCR was carried out in a 50 μl volume containing 5 μl cDNA, 100 pmol primers, 100 μM dNTPs, 1×Taq buffer and 1.5 mM MgCl2. Reaction mixtures were heated to 80° C. for 10 min, after which Taq was added. cDNAs were amplified for 25 ([…]) or 15 (GAPDH) cycles. One round of amplification consisted of 1 min at 94° C., 2 min at 60° C., and 2 min at 72° C., with a final extension time of 10 min at 72° C. The PCR products were resolved and visualized by electrophoresis in a 2% gel, stained with ethidium bromide. ALP PCR primers used were, 5′-[…]-3′ and 5′-[…]-3′. Primer pairs for GAPDH were 5′-[…]-3′ and 5′-[…]-3′. A housekeeping gene, GADPH was used as a control.

[8] = system: C2C12 myoblasts; assay: Myogenesis (myotube formation) in C2C12 myoblast cells; format: cell-based, Murine; conditions: C2C12 cells grown in GM
Procedure: as §1
as §2, with “Confluent cells (myoblasts of the same cell density fully covering surface dish) were then guided to post mitotic status, and differentiation and fusion were initiated by replacing GM with 2% (v/v) horse serum HS/DMEM designed as DM (differentiating medium).” left out

[9] = system: ANP and Nkx2.5 mRNA in the ES cells; assay: Real time RT-PCR of cardiomyogenesis marker genes ANP and Nkx2.5; format: cell-based, mouse; conditions: ES cells treated for 7 and 10 days
Procedure: d. Real time RT-PCR: To analyze the mRNA levels of cardiomyogenesis marker genes, Atrial Natriuretic Peptide (ANP) and Nk×2.5, total RNA was isolated using Trizol (Invitrogen-GIBCO-BRL, Baltimore, Md., USA) from stem cells with or without Compound E treatment for 7 days and 10 days. Relative expression level of each mRNA was measured.

IC50 [1]: 1.46 µM
Structure (SMILES): CN1CC(=S)N2[C@H](Cc3ccc(O)cc3)C(=O)N(Cc3cccc4ccccc34)C[C@H]2N1C(=O)NCc1ccccc1 [#111]
Cardiomyogenesis: fold change of EGFP expression level compared with DMSO control ([2]; FACS): 0.10 fold

IC50 [1]: 6.98 µM
Structure (SMILES): CN(C)c1c(Cl)cccc1CN1C[C@H]2N(C(=O)CN(C)N2C(=O)NCc2ccccc2)[C@@H](Cc2ccc(O)cc2)C1=O [#10]
cellular alkaline phosphatase activity ([3]; 20 μM, hBMMSC): strongly inhibited
ALP level reduced ([3]; 20 μM, treated alone to hBMMSC): 77%
fold induction at 20 µM ([3]; hBMMSC): 0.23
ALP level reduced compared with vehicle control group ([4]; 20 μM, co-treated with osteogenic induction cocktails): 80%
inhibition at 20 µM ([5]; Homo sapiens, read-out: cell proliferation inhibited): 51%
expression of fluorescence, ratio Compound : DMSO control (control = 1) ([2]; 10 μM for 5 days, mouse embryonic stem cells): 0.26
Cardiomyogenesis: fold change of EGFP expression level compared with DMSO control ([2]; FACS): 0.26 fold
Myf-5 expression, compound without Wnt1 [6]: reduced
expression of Myf5 compared with DMSO control, dose dependence [6]: dose-dependently decreased
Myf-5 expression on co-treatment with Wnt1 conditioned medium [6]: abolished Myf-5 enhancing activity of Wnt1
Myf5 expression on co-treatment of CBP ([6]; co-treatment of CBP): not changed
Myf5 expression on co-treatment of p300 ([6]; co-treatment of p300): rescues the decrease of Myf5 expression

ALP mRNA expression [7]: increased
Structure (SMILES): O=C1[C@H](Cc2ccc(Cl)cc2)N2C(=O)CN(Cc3ccccc3)N(C(=O)NCc3ccccc3)[C@H]2CN1CCc1ccc(Cl)cc1 [#82]
ALP level enhanced ([3]; 20 μM, treated alone to hBMMSC): 200%
fold induction at 20 µM ([3]; hBMMSC): 2
mineralization of hBMMSC ([4]; co-treated with osteogenic induction cocktails (OIC)): strongly induced mineralization
stimulation of mineralization at various concentrations ([4]; even at the 0.5 μM): osteogenesis inducing activity
cell proliferation ([5]; 20 μM): 127%
Cardiomyogenesis: fold change of EGFP expression level compared with DMSO control ([2]; FACS): 0.97 fold

The next lines start with the compound.

Structure (SMILES): O=C1[C@@H](Cc2ccc(O)cc2)N2C(=S)CCN(C(=O)NCc3ccccc3)[C@@H]2CN1Cc1cccc2ccccc12 [#112]
Cardiomyogenesis: fold change of EGFP expression level compared with DMSO control ([2]; FACS): 0.95 fold
myotube formation in growth medium (GM) [8]: extensive myotube formation
Myf5 protein expression level [6]: significantly increased
MyoD protein expression level [6]: significantly increased
expression of Myf5 compared with DMSO control, dose dependence [6]: dose-dependently increased
Myf-5 expression on co-treatment with Wnt1 conditioned medium [6]: further enhanced

Structure (SMILES): O=C1[C@H](Cc2ccc(F)c(F)c2)N2C(=O)CN(Cc3ccc(F)cc3)N(C(=O)NCc3ccccc3)[C@H]2CN1Cc1cccc(C(F)(F)F)c1 [#71]
expression of fluorescence under the fluorescence microscope compared with DMSO control ([2]; 10 μM, Day 5): significantly enhanced
fold increase of alpha-MHC positive cells compared to DMSO treated EB ([2]; 10 μM, FACS): 4.6 fold
cell population expressing fluorescence (alpha-MHC positive) ([2]; 10 μM, FACS analysis of embryoid bodies): 2.50%
Cardiomyogenesis: fold change of EGFP expression level compared with DMSO control ([2]; FACS): 4.63 fold
cardiomyogenesis differentiation promoting effect at low concentration ([2]; even at the 0.3 μM): distinctive
cardiomyogenesis differentiation promoting activity (EGFP expression), concentration dependence ([2]; various concentrations): concentration-dependent
expression level of ANP mRNA compared with DMSO control [9]: strongly increased
expression level of Nkx2.5 mRNA compared with DMSO control [9]: strongly increased

Source: patent publication US20090215783A1, “COMPOSITION FOR INDUCTION OR INHIBITION OF STEM CELL DIFFERENTIATION” (CHOONGWAE PHARMA CORPORATION, priority 2006, published 2009)
